Results published in US20250296953A1, “3,4-THIAZOLO-STEROIDS AND METHODS OF MAKING AND USING THE SAME” (Arkansas State University - Jonesboro, priority 2018, published 2025).
Where two headings read alike, the source gives them in different places.

What was measured:
HCT-15 (Colon Cancer) = assay: NCI 60 one dose screen; format: cell-based, human
gliosarcoma (SF-539) = assay: NCI 60 five dose screen; details: for GI50: SF-539
SK-MEL-28 = assay: Melanoma cytotoxicity assay (resazurin); format: cell-based; details: SK-MEL-28 melanoma cells, 24 hours with compound, resazurin; concentration not given
Outline: (§1)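 ~4000 cells/well, 24 h attach, 37° C/5% CO2; cpd triplicate, 24 h; resazurin 6 h; fluor 544/590 nm. % viability vs DMSO after media-blank subtraction; IC50 from dilution series, sigmoidal fit.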

SK-MEL-25 = assay: Melanoma cytotoxicity assay (resazurin); format: cell-based; details: SK-MEL-25 melanoma cells, 24 hours with compound, resazurin; concentration not given
Outline: as §1

SK-MEL-5 = assay: Melanoma cytotoxicity assay (resazurin); format: cell-based; details: SK-MEL-5 melanoma cells, 24 hours with compound, resazurin; concentration not given
Outline: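 Readout: resazurin fluorescence (ex 544, em 590 nm) after 6 h dye incubation, following 24 h compound exposure of ~4000 cells/well. Viability = background-subtracted signal over DMSO wells; IC50 by sigmoidal curve fitting.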

[1] = system: 60 different human tumor cell lines; assay: cells

## C[C@]12CCc3sc(Nc4ccc(F)cc4F)nc3C1=CC[C@@H]1[C@@H]2CC[C@]2(C)C(=O)CC[C@@H]12 [IIa.10, (1S,2R,13R,14S,18S)-7-(2,4-difluoroanilino)-2,18-dimethyl-6-thia-8-azapentacyclo[11.7.0.02,10.05,9.014,18]icosa-5(9),7,10-trien-17-one]
HCT-15 (Colon Cancer)
  Growth Percent: 7.76%
Gliosarcoma (SF-539); Homo sapiens
  GI50: 1.63 µM
SK-MEL-28
  SK-MEL-28 (% inhibition): 14%
SK-MEL-25
  SK-MEL-25 (% inhibition): 34%
SK-MEL-5
  SK-MEL-5 (% inhibition): 48%
[1]; 60 cell, read-out: LC50
  CC50: > 100 µM
[1]; A498, read-out: LC50
  CC50: > 100 µM
[1]; A549, read-out: LC50
  CC50: > 100 µM
[1]; ACHN
  GI50: 1.81 µM
[1]; BT-549, read-out: LC50
  CC50: > 100 µM
[1]; CAKI-1, read-out: LC50
  CC50: > 100 µM
[1]; CCRF-CEM
  GI50: 2.64 µM
[1]; CCRF-CEM, read-out: LC50
  CC50: > 100 µM
[1]; DU-145
  GI50: 1.98 µM
[1]; EKVX, read-out: LC50
  CC50: > 100 µM
[1]; HCT-15
  GI50: 1.7 µM
[1]; HCT-15, read-out: LC50
  CC50: > 100 µM
[1]; HCT-116
  GI50: 1.67 µM
[1]; HL-60, read-out: LC50
  CC50: > 100 µM
[1]; HOP-62, read-out: LC50
  CC50: > 100 µM
[1]; HOP-92, read-out: LC50
  CC50: > 100 µM
[1]; HT-29
  GI50: 2.24 µM
[1]; HT-29, read-out: LC50
  CC50: > 100 µM
[1]; Hs-578T, read-out: LC50
  CC50: > 100 µM
[1]; IGROV-1, read-out: LC50
  CC50: > 100 µM
[1]; K562
  GI50: 2.43 µM
[1]; K562, read-out: LC50
  CC50: > 100 µM
[1]; LOX IMVI
  GI50: 1.71 µM
[1]; M14, read-out: LC50
  CC50: > 100 µM
[1]; MCF7, read-out: LC50
  CC50: > 100 µM
[1]; MDA-MB-231, read-out: LC50
  CC50: > 100 µM
[1]; MDA-MB-435, read-out: LC50
  CC50: > 100 µM
[1]; MDA-MB-468
  GI50: 1.75 µM
[1]; MOLT-4
  GI50: 2.44 µM
[1]; MOLT-4, read-out: LC50
  CC50: > 100 µM
[1]; Malme-3M, read-out: LC50
  CC50: > 100 µM
[1]; NCI-H23, read-out: LC50
  CC50: > 100 µM
[1]; NCI-H226
  GI50: 1.83 µM
[1]; NCI-H322M, read-out: LC50
  CC50: > 100 µM
[1]; NCI-H460, read-out: LC50
  CC50: > 100 µM
[1]; NCI-H522
  GI50: 1.84 µM
[1]; NCI/ADR-RES, read-out: LC50
  CC50: > 100 µM
[1]; OVCAR-3
  GI50: 1.9 µM
[1]; OVCAR-4, read-out: LC50
  CC50: > 100 µM
[1]; OVCAR-5, read-out: LC50
  CC50: > 100 µM
[1]; OVCAR-8
  GI50: 2.96 µM
[1]; OVCAR-8, read-out: LC50
  CC50: > 100 µM
[1]; RXF 393
  GI50: 1.57 µM
[1]; SF-268, read-out: LC50
  CC50: > 100 µM
[1]; SK-MEL-2, read-out: LC50
  CC50: > 100 µM
[1]; SK-MEL-5
  GI50: 1.88 µM
[1]; SK-OV-3, read-out: LC50
  CC50: > 100 µM
[1]; SN12C, read-out: LC50
  CC50: > 100 µM
[1]; SNB-19, read-out: LC50
  CC50: > 100 µM
[1]; SNB-75, read-out: LC50
  CC50: > 100 µM
[1]; SW-620
  GI50: 2.4 µM
[1]; SW-620, read-out: LC50
  CC50: > 100 µM
[1]; T47D
  GI50: 2.25 µM
[1]; T47D, read-out: LC50
  CC50: > 100 µM
[1]; TK-10
  GI50: 2.8 µM
[1]; TK-10, read-out: LC50
  CC50: > 100 µM
[1]; U-251, read-out: LC50
  CC50: > 100 µM
[1]; UACC-62, read-out: LC50
  CC50: > 100 µM
[1]; UACC-257, read-out: LC50
  CC50: > 100 µM

## C[C@]12CCc3sc(Nc4ccc(OC(F)(F)F)cc4)nc3C1=CC[C@@H]1[C@@H]2CC[C@]2(C)C(=O)CC[C@@H]12 [IIa.19, (1S,2R,13R,14S,18S)-2,18-dimethyl-7-[4-(trifluoromethoxy)anilino]-6-thia-8-azapentacyclo[11.7.0.02,10.05,9.014,18]icosa-5(9),7,10-trien-17-one]
HCT-15 (Colon Cancer)
  Growth Percent: 38.33%
Gliosarcoma (SF-539); Homo sapiens
  GI50: 1.05 µM
Gliosarcoma (SF-539); Homo sapiens, SF-539, read-out: LC50
  CC50: 7.07 µM
Gliosarcoma (SF-539); SF-539 (CNS Cancer), five dose
  TGI: 2.72E−6
SK-MEL-28
  SK-MEL-28 (% inhibition): 97%
SK-MEL-25
  SK-MEL-25 (% inhibition): 24%
SK-MEL-5
  SK-MEL-5 (% inhibition): 43%
[1]; A549
  GI50: 3.35 µM
[1]; A549, read-out: LC50
  CC50: 73.5 µM
[1]; CCRF-CEM
  GI50: 1.42 µM
[1]; CCRF-CEM, read-out: LC50
  CC50: > 100 µM
[1]; COLO 205
  GI50: 2.61 µM
[1]; COLO 205, read-out: LC50
  CC50: 58.7 µM
[1]; EKVX
  GI50: 2.63 µM
[1]; EKVX, read-out: LC50
  CC50: 95.7 µM
[1]; HCC 2998
  GI50: 5.32 µM
[1]; HCC 2998, read-out: LC50
  CC50: 51.2 µM
[1]; HCT-15
  GI50: 1.69 µM
[1]; HCT-15, read-out: LC50
  CC50: 9.97 µM
[1]; HCT-116
  GI50: 1.28 µM
[1]; HL-60
  GI50: 1.93 µM
[1]; HL-60, read-out: LC50
  CC50: > 100 µM
[1]; HOP-62
  GI50: 1.92 µM
[1]; HOP-62, read-out: LC50
  CC50: 9.14 µM
[1]; HOP-92
  GI50: 1.43 µM
[1]; HOP-92, read-out: LC50
  CC50: 8.26 µM
[1]; HT-29
  GI50: 2.39 µM
[1]; HT-29, read-out: LC50
  CC50: > 100 µM
[1]; K562
  GI50: 1.87 µM
[1]; K562, read-out: LC50
  CC50: > 100 µM
[1]; KM12
  GI50: 3.56 µM
[1]; KM12, read-out: LC50
  CC50: > 100 µM
[1]; LOX IMVI
  GI50: 1.74 µM
[1]; LOX IMVI, read-out: LC50
  CC50: 5.82 µM
[1]; MOLT-4
  GI50: 1.53 µM
[1]; MOLT-4, read-out: LC50
  CC50: > 100 µM
[1]; Malme-3M
  GI50: 3.45 µM
[1]; Malme-3M, read-out: LC50
  CC50: 84.5 µM
[1]; NCI-H23
  GI50: 3.73 µM
[1]; NCI-H23, read-out: LC50
  CC50: 94.6 µM
[1]; NCI-H226
  GI50: 6.37 µM
[1]; NCI-H226, read-out: LC50
  CC50: > 100 µM
[1]; NCI-H322M
  GI50: 6.05 µM
[1]; NCI-H322M, read-out: LC50
  CC50: > 100 µM
[1]; NCI-H460
  GI50: 3.25 µM
[1]; NCI-H460, read-out: LC50
  CC50: 41.9 µM
[1]; NCI-H522
  GI50: 2.14 µM
[1]; NCI-H522, read-out: LC50
  CC50: 9.7 µM
[1]; SF-268
  GI50: 3.01 µM
[1]; SF-268, read-out: LC50
  CC50: 57.3 µM
[1]; SNB-19
  GI50: 2.12 µM
[1]; SNB-19, read-out: LC50
  CC50: 46 µM
[1]; SNB-75
  GI50: 1.88 µM
[1]; SNB-75, read-out: LC50
  CC50: 29.6 µM
[1]; SW-620
  GI50: 2.21 µM
[1]; SW-620, read-out: LC50
  CC50: 18.5 µM
[1]; U-251
  GI50: 1.09 µM
[1]; U-251, read-out: LC50
  CC50: 9.78 µM
